Laboratory results: patent publication US9585893B2, “Flumazenil complexes, compositions comprising same and uses thereof” (COERULEUS LTD., priority 2011, dated 2017)
Structures can show the parent of a compound that is named as a salt.

Tests used:
[1] = type: physicochemical
Description: Flumazenil chloride salt consisting of flumazenil and hydrochloride acid was prepared (FIG. 1). […] The concentration of flumazenil in that composition is higher by […] than the concentration of flumazenil in the commercial product Romazicon® (Romazicon® contains 0.01% flumazenil).

[2] = tested on: hepatic encephalopathy in patients with cirrhosis; conditions: intravenous infusion of 1 mg flumazenil in 20 ml saline over 3-5 minutes; cited from earlier work
[3] = adult doses; cited from earlier work

CCOC(=O)c1ncn2c1CN(C)C(=O)c1cc(F)ccc1-2 [Flumazenil chloride salt]
concentration of flumazenil in the composition enabled by increased solubility [1]: 0.66%

CCOC(=O)c1ncn2c1CN(C)C(=O)c1cc(F)ccc1-2 [flumazenil, ethyl 8-fluoro-5,6-dihydro-5-methyl-6-oxo-4H-imidazo[1,5-a][1,4]benzodiazepine-3-carboxylate]
effect on recovery or survival [2]: no significant effect
effect on short-term improvement of hepatic encephalopathy [2]: significant beneficial effect

NC(=O)c1cccnc1 [nicotinamide, 3-pyridinecarboxamide]
dose considered to have toxic potential [3]: > 3 gm/day
